Laboratory results taken from patent publication US7371560B2, “Photosynthetic hydrogen production” (priority 2003, dated 2008).

Key:
[1] = tested on: Chlamydomonas reinhardtii Stm6 cultures; test: H2 production ± CCCP, Clark type hydrogen electrode, Stm6 cultures; format: cell-based
Method: (§1) H2 concentrations were measured in the liquid phase and the gaseous head space above, both for WT and Stm6 cultures (cell density of OD750 nm=0.8). Dissolved H2 concentrations were measured in 1 liter dark-adapted cell cultures in TAP medium replete with, or depleted of, sulfur using a Clark type hydrogen electrode (Unisense PA2000, Denmark) upon white light illumination. H2 concentrations in the presence and absence of 5 μM carbonylcyanide m-chlorophenylhydrazone (CCCP) were measured using dark adapted cultures (1 h) before and after illumination (white light, 300 μmol m^−2·s^−1) The H2 concentration in the gaseous head space was measured using a mass spectrometer (Delta Finnigan MAT). Cell cultures were dark-adapted for 30 min in a weak vacuum to deplete the medium and headspace of O2 and H2, prior to illumination with continuous or pulsed (3.3 Hz frequency, 5 μs flashes; light intensity range of 15-3000 μmol·m^−2·s^−1) white light.

[2] = tested on: Chlamydomonas reinhardtii WT cultures; test: H2 production ± CCCP, Clark type hydrogen electrode, WT cultures; format: cell-based; settings: CCCP added to WT culture
Method: as §1

`N#CC(C#N)=NNc1cccc(Cl)c1` [CCCP, carbonylcyanide m-chlorophenylhydrazone] was tested, and the “period of increased H2 production with CCCP” value ([1]; 5 μM CCCP, Stm6 culture) was “at least 30 min”, the “H2 production rate with CCCP, higher than in the WT” value ([1]; 5 μM CCCP, dark adapted cultures (1 h), white light 300 μmol m^−2·s^−1, relative to WT) was roughly 1500% and the “H2 production rate in the presence of CCCP, times higher than the WT” value ([1]; Stm6 in the presence of CCCP, relative to WT) was 15 ×. For the same compound, the “effect of CCCP on H2 production” value [2] was “hardly any effect”.
